Experimental data published in publication PMC8236048, “Pharmaceutical design of a delivery system for the bacteriocin lacticin 3147” (Drug Delivery and Translational Research, 2021).

Assays:
α-chymotrypsin = molecular target: T1, α-chymotrypsin (Bos taurus, UniProt P00766); assay: Enzyme degradation of lacticin 3147 by α-chymotrypsin (activity, MALDI-TOF); format: in vitro ADME; details: 25 mg/ml α-chymotrypsin, 3 h, 37 °C; then growth curve at 400 nM peptides
T1 construct: purchased Sigma-Aldrich Ireland Ltd
Description: Lacticin 3147 production was confirmed by matrix-assisted laser desorption ionization-time of flight (MALDI-TOF) mass spectrometry using sinapinic acid as the matrix. About 0.7 μl of the matrix solution (sinapinic acid, 4 mg/ml in 50% acetone/50% methanol) was added to the target plate and left to evaporate (30 s) at ambient conditions. Individual peptides (Ltnα or Ltnβ) were resuspended in 70% IPA and mixed at a 1:1 volume ratio with a 10-mg/ml stock solution of sinapinic acid in 60% ACN with 0.1% TFA. About 0.3 μl of this peptide-matrix solution was then added to the matrix layer previously applied to the plate and evaporated at ambient conditions. The plate was inserted into a MALDI-TOF Ultraflex mass spectrometer (Bruker) and analysed using reflectron positive 700–3500 Da mode. 100 shots were fired at 88% intensity. This method was also used for the analyses of samples from the enzyme degradation studies.
Trypsin and α-chymotrypsin stock solutions (50 mg/ml) were resuspended in water. Pepsin (50 mg/ml) was resuspended in 0.02 M HCL. About 1 mg/ml individual solutions of Ltnα and Ltnβ in 70% IPA were filtered and diluted (1 in 20) in sterile PBS to give a final peptide concentration of 50 µg/ml. After this, 5.3 µl Ltnα and 4.6 µl Ltnβ were added to the same well of a 96-well plate. The pH of the lacticin 3147-pepsin solution was 2.29. Control wells consisting of Ltnα and Ltnβ together, Ltnα alone, and Ltnβ alone with no enzyme were included. The 96-well plate was incubated for 3 h at 37 °C to allow the enzyme to act. After incubation, the wells were filled to 50 μl with PBS and 150 μl of diluted bacterial cell culture (L. monocytogenes at an OD of 0.1) was added to each well. The final peptide concentration of 400 nM (1.31 µg/ml Ltnα, 1.14 µg/ml Ltnβ) was obtained when the wells were filled to 200 µl. […] The effect of the proteases pepsin, α-chymotrypsin, and trypsin on the lacticin 3147 peptides was determined by MALDI-TOF mass spectrometry. […] After 3 h, 1 µl was removed from each sample and it was analysed by MALDI-TOF mass spectrometry. […]

pepsin = molecular target: T2, pepsin (Sus scrofa, UniProt P00791); details: cited from earlier work
T2 construct: purchased Sigma-Aldrich Ireland Ltd
T2 sequence (P00791 60-385): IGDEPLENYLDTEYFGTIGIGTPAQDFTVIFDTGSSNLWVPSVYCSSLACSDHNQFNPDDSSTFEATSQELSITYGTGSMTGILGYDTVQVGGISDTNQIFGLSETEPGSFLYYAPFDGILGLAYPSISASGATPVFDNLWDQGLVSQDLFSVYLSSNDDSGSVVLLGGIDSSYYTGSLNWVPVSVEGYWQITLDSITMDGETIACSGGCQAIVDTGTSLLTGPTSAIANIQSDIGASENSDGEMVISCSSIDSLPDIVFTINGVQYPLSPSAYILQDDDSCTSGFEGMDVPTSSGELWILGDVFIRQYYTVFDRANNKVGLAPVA
Description: (§1) Gardiner et al., however, reported that α-chymotrypsin alone degrades lacticin 3147 [21]. Lacticin 3147 is heat stable, pH stable, and active at a neutral pH [9]. However, quantitative data on the amount of lacticin 3147 dissolved, i.e. its solution concentration, is rarely reported. In fact, only a handful of quantitative solubility studies on bacteriocins can be found in the literature [[ ...

trypsin = details: cited from earlier work
Description: as §1

[1] = cited from earlier work
Description: as §1

[2] = test system: L. monocytogenes ATCC1916; assay: Well diffusion assay, lacticin 3147 SLNs vs free peptide; format: cell-based; details: 6-mm wells, 12.5 µL α + 12.5 µL β component, 0.2 µm filtered, free peptide in water at the total peptide content of the SLNs, mean ± SD
Description: The activity of the lacticin 3147 SLNs was evaluated using the well diffusion assay method, on TSA supplemented with 6 g/L yeast. The inhibition zones were reported in millimetre (mm) using electronic Vernier callipers. […] Wells were bored in the agar after it hardened using a sterile 6-mm cork borer. α-SLN and β-SLN were filtered using a 0.2-μm PES filter (SLNs can pass through), and 12.5 μL of each was added to the same well. The blank SLNs were used as negative controls (25 μL). […] The free peptides were filtered again using a 0.2-μm PES filter before addition to the wells to ensure sterility. All tests were performed in triplicate.

[3] = test system: L. monocytogenes ATCC1916; assay: Well diffusion assay after incubation with α-chymotrypsin; format: cell-based
Description: α-SLN and β-SLN were filtered using a 0.2-µm PES filter, and 25 µl of each were added to the same well of a 96-well plate. About 50 µl of a 50 mg/ml solution of α-chymotrypsin was added to these wells. A blank was set up with 50-µl water instead of α-chymotrypsin. This was repeated for free peptide solutions prepared as outlined above. The 96-well plate was incubated for 3 h at 37 °C. The 96-well plate was then removed from the incubator, and 25 µl of each solution was added in triplicate to 6-mm wells on TSA (6 g/L yeast) plates inoculated with 200 µl L. monocytogenes ATCC1916. The plates were incubated at 37 °C for 24 h, after which the inhibition zones were measured using an electronic Vernier callipers.

lacticin 3147
activity against L. monocytogenes ATCC 1916 after incubation with α-chymotrypsin (α-chymotrypsin): growth curve similar to that of the bacterial control
effect of pepsin on activity (pepsin): unaffected
effect of trypsin (trypsin): degraded and inactivated
heat stability [1]: heat stable
pH stability [1]: pH stable
zone of inhibition [2]: 12.9 ± 0.3 mm
zone of inhibition after incubation with α-chymotrypsin, single well ([3]; Fig. 11, first value printed in the picture of the plate): 6 mm
zone of inhibition after incubation with α-chymotrypsin, single well ([3]; Fig. 11, second value printed in the picture of the plate): 6.1 mm
zone of inhibition after incubation with α-chymotrypsin, single well ([3]; Fig. 11, third value printed in the picture of the plate): 6 mm
